Data published in patent US20020137929A1, “1 - (3-heterocyclylphenyl) isothiourea, -isourea, -guanidine and -amidine herbicidal agents” (Intellectual Property Department, BASF Aktiengesellschaft, priority 1998, published 2002).

Legend:
ABUTH (Velvetleaf) = assay: Postemergence herbicidal evaluation; assay type: in vivo, Abutilon theophrasti
How it was run: (§1)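 ~2-wk seedlings; postemergence spray, 40 psi; vehicle 1:1 acetone:water + 0.5% Tween 20; rate ≈0.0156–0.500 kg/ha; greenhouse hold; scored 4–5 wk after treatment, 0–9 scale vs control; repeat tests averaged.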

[1] = tested on: IPOHE (Morningglory, Ivyleaf); assay: Postemergence herbicidal evaluation; assay type: in vivo, Ipomoea hederacea
How it was run: as §1

AMBEL (Ragweed, Common) = assay: Postemergence herbicidal evaluation; assay type: in vivo, Ambrosia artemisifolia
How it was run: as §1

SETVI (Foxtail, Green) = assay: Postemergence herbicidal evaluation; assay type: in vivo, Setaria viridis
How it was run: as §1

[2] = tested on: GLXMAW (Soybean, Williams); assay: Postemergence herbicidal evaluation; assay type: in vivo, Glycine max, (L.) Merr. cv Williams
How it was run: as §1

[3] = tested on: ECHORC (Watergrass (Calif.)); assay: Postemergence weed control under flooded paddy conditions; assay type: in vivo, Echinochloa oryzoides; details: postemergence weeds, 3-4 weeks after treatment
How it was run: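 Containers holding 3–5 cm weeds and rice at 1.5–2.5 leaves are flooded to 1.5–3 cm above soil. Compound in 50/50 v/v aqueous/acetone is then added directly to the water, about 0.0313–0.500 kg/ha. Plants are kept in the greenhouse and rated 0–9 visually at 3–4 weeks.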

ECHCG (Barnyardgrass) [4] = assay: Postemergence herbicidal evaluation; assay type: in vivo, Echinochloa crus-galli
How it was run: as §1

ECHCG (Barnyardgrass) [5] = assay: Preemergence herbicidal evaluation; assay type: in vivo, Echinochloa crus-galli; details: rated 4-5 weeks after treatment
How it was run: (§2)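 In this greenhouse assay, monocot and dicot seeds are planted in soil and treated prior to emergence with an aqueous acetone spray (about 0.0156-0.500 kg/ha). Plants are assessed visually against control on a 0-9 scale after 4-5 weeks.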

[6] = tested on: CHEAL (Lambsquarters, Common); assay: Preemergence herbicidal evaluation; assay type: in vivo, Chenopodium album; details: rated 4-5 weeks after treatment
How it was run: as §2

CASOB (Sicklepod) = assay: Preemergence herbicidal evaluation; assay type: in vivo, Cassia obtusifolia; details: rated 4-5 weeks after treatment
How it was run: as §2

[7] = tested on: IPOHE (Morningglory, Ivyleaf); assay: Preemergence herbicidal evaluation; assay type: in vivo, Ipomoea hederacea; details: rated 4-5 weeks after treatment
How it was run: as §2

[8] = tested on: TRZAWR (Wheat, Winter, cv Riband); assay: Postemergence herbicidal evaluation; assay type: in vivo, Triticum aestivum
How it was run: as §1

GALAP (Galium) = assay: Preemergence herbicidal evaluation; assay type: in vivo, Galium aparine; details: rated 4-5 weeks after treatment
How it was run: as §2

ZEAMX (Corn, Field) = assay: Preemergence herbicidal evaluation; assay type: in vivo, Zea mays; details: rated 4-5 weeks after treatment
How it was run: as §2

O=C(O)CC1SC(=Nc2cc(N3C(=O)C4=C(CCCC4)C3=O)c(F)cc2Cl)N(CC(=O)O)C1=O (centres unmarked) [Compound 48, 2-{[2-Chloro-5-(1-cyclohexene-1,2-dicarboximido)-4-fluorophenyl]imino}-4-oxo-3,5-thiazolidinediacetic acid]
7.5: Postemergence herbicidal rating GLXMAW ([2]; Rate 0.0625 kg/ha)
0.0: Postemergence herbicidal rating SETVI (SETVI (Foxtail, Green); Rate 0.0156 kg/ha) | Postemergence herbicidal rating SETVI (SETVI (Foxtail, Green); Rate 0.0313 kg/ha) | Postemergence herbicidal rating ECHCG (ECHCG (Barnyardgrass) [4]; Rate 0.0156 kg/ha) | Preemergence herbicidal rating ECHCG (ECHCG (Barnyardgrass) [5]; rate 0.0156 kg/ha) | Preemergence herbicidal rating ECHCG (ECHCG (Barnyardgrass) [5]; rate 0.0313 kg/ha) | Preemergence herbicidal rating ECHCG (ECHCG (Barnyardgrass) [5]; rate 0.0625 kg/ha) | Preemergence herbicidal rating ECHCG (ECHCG (Barnyardgrass) [5]; rate 0.1250 kg/ha) | Preemergence herbicidal rating ECHCG (ECHCG (Barnyardgrass) [5]; rate 0.2500 kg/ha) | Preemergence herbicidal rating CASOB (CASOB (Sicklepod); rate 0.0156 kg/ha) | Preemergence herbicidal rating CASOB (CASOB (Sicklepod); rate 0.0313 kg/ha) | Preemergence herbicidal rating CASOB (CASOB (Sicklepod); rate 0.0625 kg/ha) | Preemergence herbicidal rating CASOB (CASOB (Sicklepod); rate 0.1250 kg/ha) | Preemergence herbicidal rating IPOHE ([7]; rate 0.0156 kg/ha) | Preemergence herbicidal rating IPOHE ([7]; rate 0.0313 kg/ha) | Preemergence herbicidal rating IPOHE ([7]; rate 0.0625 kg/ha) | Preemergence herbicidal rating IPOHE ([7]; rate 0.2500 kg/ha) | Preemergence herbicidal rating GALAP (GALAP (Galium); rate 0.0156 kg/ha) | Preemergence herbicidal rating GALAP (GALAP (Galium); rate 0.0313 kg/ha) | Preemergence herbicidal rating GALAP (GALAP (Galium); rate 0.0625 kg/ha) | Preemergence herbicidal rating GALAP (GALAP (Galium); rate 0.1250 kg/ha) | Preemergence herbicidal rating GALAP (GALAP (Galium); rate 0.2500 kg/ha) | Preemergence herbicidal rating ZEAMX (ZEAMX (Corn, Field); rate 0.0156 kg/ha) | Preemergence herbicidal rating ZEAMX (ZEAMX (Corn, Field); rate 0.0313 kg/ha) | Preemergence herbicidal rating ZEAMX (ZEAMX (Corn, Field); rate 0.0625 kg/ha) | Preemergence herbicidal rating ZEAMX (ZEAMX (Corn, Field); rate 0.1250 kg/ha)
3.0: Postemergence herbicidal rating AMBEL (AMBEL (Ragweed, Common); Rate 0.0156 kg/ha) | Herbicidal rating ECHORC ([3]; rate 0.1250 kg/ha) | Preemergence herbicidal rating CASOB (CASOB (Sicklepod); rate 0.2500 kg/ha)
5.5: Postemergence herbicidal rating GLXMAW ([2]; Rate 0.0156 kg/ha)
6.0: Postemergence herbicidal rating GLXMAW ([2]; Rate 0.0313 kg/ha) | Herbicidal rating ECHORC ([3]; rate 0.2500 kg/ha)
2.0: Postemergence herbicidal rating SETVI (SETVI (Foxtail, Green); Rate 0.0625 kg/ha) | Postemergence herbicidal rating ECHCG (ECHCG (Barnyardgrass) [4]; Rate 0.0313 kg/ha) | Postemergence herbicidal rating ECHCG (ECHCG (Barnyardgrass) [4]; Rate 0.0625 kg/ha) | Preemergence herbicidal rating ZEAMX (ZEAMX (Corn, Field); rate 0.2500 kg/ha)
5.0: Postemergence herbicidal rating AMBEL (AMBEL (Ragweed, Common); Rate 0.0313 kg/ha) | Postemergence herbicidal rating TRZAWR ([8]; Rate 0.0156 kg/ha) | Postemergence herbicidal rating TRZAWR ([8]; Rate 0.0313 kg/ha) | Postemergence herbicidal rating TRZAWR ([8]; Rate 0.0625 kg/ha)
9.0: Postemergence herbicidal rating ABUTH (ABUTH (Velvetleaf); Rate 0.0156 kg/ha) | Postemergence herbicidal rating ABUTH (ABUTH (Velvetleaf); Rate 0.0313 kg/ha) | Postemergence herbicidal rating ABUTH (ABUTH (Velvetleaf); Rate 0.0625 kg/ha) | Postemergence herbicidal rating IPOHE ([1]; Rate 0.0156 kg/ha) | Postemergence herbicidal rating IPOHE ([1]; Rate 0.0313 kg/ha) | Postemergence herbicidal rating IPOHE ([1]; Rate 0.0625 kg/ha) | Postemergence herbicidal rating AMBEL (AMBEL (Ragweed, Common); Rate 0.0625 kg/ha) | Preemergence herbicidal rating CHEAL ([6]; rate 0.0156 kg/ha) | Preemergence herbicidal rating CHEAL ([6]; rate 0.0313 kg/ha) | Preemergence herbicidal rating CHEAL ([6]; rate 0.0625 kg/ha) | Preemergence herbicidal rating CHEAL ([6]; rate 0.1250 kg/ha) | Preemergence herbicidal rating CHEAL ([6]; rate 0.2500 kg/ha)

CCOC(=O)CN1C(=O)C(Cc2ccccc2OC(C)C(=O)OC)SC1=Nc1cc(-n2c(=O)cc(C(F)(F)F)n(C)c2=O)c(F)cc1Cl (centres unmarked) [Compound 50, 2-{{2-Chloro-5-[3,6-dihydro-3-methyl-2,6-dioxo-4-(trifluoromethyl)-1(2H)-pyrimidinyl]-4-fluoro-phenyl}imino}-5-(o-hydroxybenzyl)-4-oxo-3-thiazolidineacetic acid, ethyl ester, ester with methyl lactate]
6.0: Postemergence herbicidal rating ABUTH (ABUTH (Velvetleaf); Rate 0.0156 kg/ha)
4.5: Postemergence herbicidal rating TRZAWR ([8]; Rate 0.0625 kg/ha)
5.5: Postemergence herbicidal rating GLXMAW ([2]; Rate 0.0156 kg/ha) | Postemergence herbicidal rating GLXMAW ([2]; Rate 0.0313 kg/ha) | Postemergence herbicidal rating GLXMAW ([2]; Rate 0.0625 kg/ha)
2.0: Postemergence herbicidal rating SETVI (SETVI (Foxtail, Green); Rate 0.0625 kg/ha) | Postemergence herbicidal rating ECHCG (ECHCG (Barnyardgrass) [4]; Rate 0.0625 kg/ha)
3.0: Postemergence herbicidal rating TRZAWR ([8]; Rate 0.0156 kg/ha)
0.0: Postemergence herbicidal rating SETVI (SETVI (Foxtail, Green); Rate 0.0156 kg/ha) | Postemergence herbicidal rating SETVI (SETVI (Foxtail, Green); Rate 0.0313 kg/ha) | Postemergence herbicidal rating ECHCG (ECHCG (Barnyardgrass) [4]; Rate 0.0156 kg/ha) | Postemergence herbicidal rating ECHCG (ECHCG (Barnyardgrass) [4]; Rate 0.0313 kg/ha) | Preemergence herbicidal rating ECHCG (ECHCG (Barnyardgrass) [5]; rate 0.0625 kg/ha) | Preemergence herbicidal rating ECHCG (ECHCG (Barnyardgrass) [5]; rate 0.1250 kg/ha) | Preemergence herbicidal rating ECHCG (ECHCG (Barnyardgrass) [5]; rate 0.2500 kg/ha) | Preemergence herbicidal rating CHEAL ([6]; rate 0.0625 kg/ha) | Preemergence herbicidal rating CASOB (CASOB (Sicklepod); rate 0.0625 kg/ha) | Preemergence herbicidal rating IPOHE ([7]; rate 0.0625 kg/ha) | Preemergence herbicidal rating IPOHE ([7]; rate 0.1250 kg/ha) | Preemergence herbicidal rating IPOHE ([7]; rate 0.2500 kg/ha) | Preemergence herbicidal rating GALAP (GALAP (Galium); rate 0.0625 kg/ha) | Preemergence herbicidal rating GALAP (GALAP (Galium); rate 0.1250 kg/ha) | Preemergence herbicidal rating GALAP (GALAP (Galium); rate 0.2500 kg/ha) | Preemergence herbicidal rating ZEAMX (ZEAMX (Corn, Field); rate 0.0625 kg/ha) | Preemergence herbicidal rating ZEAMX (ZEAMX (Corn, Field); rate 0.1250 kg/ha) | Preemergence herbicidal rating ZEAMX (ZEAMX (Corn, Field); rate 0.2500 kg/ha)
7.0: Herbicidal rating ECHORC ([3]; rate 0.0625 kg/ha) | Herbicidal rating ECHORC ([3]; rate 0.1250 kg/ha) | Herbicidal rating ECHORC ([3]; rate 0.2500 kg/ha)
3.5: Postemergence herbicidal rating TRZAWR ([8]; Rate 0.0313 kg/ha)
4.0: Herbicidal rating ECHORC ([3]; rate 0.0313 kg/ha)
9.0: Postemergence herbicidal rating ABUTH (ABUTH (Velvetleaf); Rate 0.0313 kg/ha) | Postemergence herbicidal rating ABUTH (ABUTH (Velvetleaf); Rate 0.0625 kg/ha) | Postemergence herbicidal rating IPOHE ([1]; Rate 0.0156 kg/ha) | Postemergence herbicidal rating IPOHE ([1]; Rate 0.0313 kg/ha) | Postemergence herbicidal rating IPOHE ([1]; Rate 0.0625 kg/ha) | Postemergence herbicidal rating AMBEL (AMBEL (Ragweed, Common); Rate 0.0156 kg/ha) | Postemergence herbicidal rating AMBEL (AMBEL (Ragweed, Common); Rate 0.0313 kg/ha) | Postemergence herbicidal rating AMBEL (AMBEL (Ragweed, Common); Rate 0.0625 kg/ha) | Preemergence herbicidal rating CHEAL ([6]; rate 0.1250 kg/ha) | Preemergence herbicidal rating CHEAL ([6]; rate 0.2500 kg/ha) | Preemergence herbicidal rating CASOB (CASOB (Sicklepod); rate 0.1250 kg/ha) | Preemergence herbicidal rating CASOB (CASOB (Sicklepod); rate 0.2500 kg/ha)
